Like-named read-outs stand apart in the source and are kept apart here.
Legend:
Assay type in all cases: in vivo
[1] = system: Polygonum convolvulus (POLCO); test: Pre-emergence herbicidal action against POLCO
In short: (§1)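 Read-out is visual percent damage relative to untreated pots, with 100% meaning dead plants and 0% meaning no difference, assessed roughly three weeks after treatment. Compounds were applied pre-emergence to the covering soil at up to 320 g/ha.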

Oryza sativa (ORYSA) [2] = conditions: pre-emergence, crop plant compatibility, in comparison to untreated controls
In short: (§2)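 Scoring: visual, % of untreated control, about 3 weeks after a pre-emergence application to the soil surface. Application used WP or EC formulations diluted in water with 0.5% additive at 600 l/ha; dosage levels are marked by suffixes a, b and c.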

Zea mays (ZEAMX) [3] = conditions: pre-emergence, crop plant compatibility, in comparison to untreated controls
In short: as §2

[4] = system: Matricaria inodora (MATIN); test: Pre-emergence herbicidal action against MATIN; conditions: dosage 320 g/ha
In short: as §1

[5] = system: Abutilon theophrasti (ABUTH); test: Post-emergence herbicidal action against ABUTH; conditions: visual rating about 3 weeks after treatment vs untreated controls (100% = plants have died, 0% = like control plants)
In short: (§3)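 Values are percent visual activity (0% like control, 100% plants dead) after about 3 weeks in the greenhouse. Treatment: post-emergence spray at one-leaf stage, 600 l/ha spray volume, 0.5% additive, doses 320 g/ha or lower.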

[6] = system: Alopecurus myosuroides (ALOMY); test: Post-emergence herbicidal action against ALOMY; conditions: visual rating about 3 weeks after treatment vs untreated controls (100% = plants have died, 0% = like control plants)
In short: as §3

Setaria viridis (SETVI) [7] = test: Post-emergence herbicidal action against SETVI
In short: as §3

[8] = system: Polygonum convolvulus (POLCO); test: Post-emergence herbicidal action against POLCO
In short: as §3

[9] = system: Amaranthus retroflexus (AMARE); test: Post-emergence herbicidal action against AMARE
In short: as §3

[10] = system: Matricaria inodora (MATIN); test: Post-emergence herbicidal action against MATIN; conditions: dosage 320 g/ha
In short: as §3

Avena fatua (AVEFA) [11] = test: Pre-emergence herbicidal action against AVEFA; conditions: 320 g/ha, visual scoring after about 3 weeks vs untreated controls
In short: as §1

Setaria viridis (SETVI) [12] = test: Pre-emergence herbicidal action against SETVI; conditions: dosage 320 g/ha
In short: as §1

[13] = system: Echinochloa crus-galli (ECHCG); test: Post-emergence herbicidal action against ECHCG
In short: as §3

[14] = system: Amaranthus retroflexus (AMARE); test: Pre-emergence herbicidal action against AMARE; conditions: visual scoring after about 3 weeks vs untreated controls
In short: as §1

Viola tricolor (VIOTR) [15] = test: Post-emergence herbicidal action against VIOTR
In short: as §3

[16] = system: Verconica persica (VERPE); test: Pre-emergence herbicidal action against VERPE; conditions: dosage 320 g/ha
In short: as §1

Lolium rigidum (LOLRI) [17] = test: Post-emergence herbicidal action against LOLRI; conditions: dosage 320 g/ha
In short: as §3

Viola tricolor (VIOTR) [18] = test: Pre-emergence herbicidal action against VIOTR
In short: as §1

Oryza sativa (ORYSA) [19] = conditions: crop plant compatibility
In short: (§4)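 Visual rating (% effect vs. untreated plants; 100% = plant death) made about 3 weeks after treatment. Plants had been sprayed at one-leaf stage, 2–3 weeks post-sowing, with aqueous WP/EC preparations containing 0.5% additive, 600 l/ha water volume; a, b, c mark dose levels.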

[20] = system: Alopecurus myosuroides (ALOMY); test: Pre-emergence herbicidal action against ALOMY; conditions: scored visually after about 3 weeks, 100% = plants have died
In short: as §1

Avena fatua (AVEFA) [21] = test: Post-emergence herbicidal action against AVEFA; conditions: visual rating about 3 weeks after treatment
In short: as §3

[22] = system: Verconica persica (VERPE); test: Post-emergence herbicidal action against VERPE
In short: as §3

Lolium rigidum (LOLRI) [23] = test: Pre-emergence herbicidal action against LOLRI; conditions: dosage 320 g/ha
In short: as §1

[24] = system: Echinochloa crus-galli (ECHCG); test: Pre-emergence herbicidal action against ECHCG; conditions: dosage 320 g/ha
In short: as §1

[25] = system: Pharbitis purpurea (PHBPU); test: Post-emergence herbicidal action against PHBPU
In short: as §3

Zea mays (ZEAMX) [26] = system: Zea mays (ZEAMX)
In short: as §4

[27] = system: Triticum aestivum (TRZAS); conditions: crop plant compatibility, 20 g/ha, effect vs untreated controls
In short: as §4

[28] = 80 g/ha, visual rating about 3 weeks after treatment vs untreated controls (100% = plants have died, 0% = like control plants)
[29] = 320 g/ha, visual rating about 3 weeks after treatment
[30] = 80 g/ha, effect in comparison to untreated controls

Structure (SMILES)	Pre-emergence action against POLCO in % ([1]; dosage 320 g/ha) [%]	Pre-emergence action against ORYSA in % (Oryza sativa (ORYSA) [2]; 80 g/ha) [%]	Pre-emergence action against ZEAMX in % (Zea mays (ZEAMX) [3]; 80 g/ha) [%]	Pre-emergence action against MATIN in % [4] [%]	Post-emergence action against ABUTH in % ([5]; 80 g/ha) [%]	Post-emergence action against ABUTH in % ([5]; 320 g/ha) [%]	Post-emergence action against ALOMY in % ([6]; 320 g/ha) [%]	Post-emergence action against SETVI in % (Setaria viridis (SETVI) [7]; dosage 320 g/ha) [%]	Post-emergence action against POLCO in % ([8]; dosage 80 g/ha) [%]	Post-emergence action against POLCO in % ([8]; dosage 320 g/ha) [%]	Post-emergence action against AMARE in % [9, 28] [%]	Post-emergence action against AMARE in % [9, 29] [%]	Post-emergence action against MATIN in % [10] [%]	Pre-emergence action against AVEFA in % (Avena fatua (AVEFA) [11]) [%]	Pre-emergence action against SETVI in % (Setaria viridis (SETVI) [12]) [%]	Pre-emergence action against AMARE in % ([14]; 320 g/ha) [%]	Pre-emergence action against VERPE in % [16] [%]	Pre-emergence action against VIOTR in % (Viola tricolor (VIOTR) [18]; 320 g/ha, Viola tricolor) [%]	Post-emergence action against ORYSA in % (Oryza sativa (ORYSA) [19]; [30]) [%]	Pre-emergence action against ALOMY ([20]; 320 g/ha) [%]	also measured
CSCCOC(=O)COc1nn(-c2ccccn2)c(-c2ccc(F)nc2)c1Br [Example I-95]	90	0	0	80	80	80	100	90	80	80	80	90	80	80	100	100	100	100	0	80	Pre-emergence action against ORYSA in % (Oryza sativa (ORYSA) [2]; 320 g/ha): 0%; Pre-emergence action against ZEAMX in % (Zea mays (ZEAMX) [3]; 320 g/ha): 0%; Post-emergence action against ECHCG in % ([13]; dosage 320 g/ha): 90%; Pre-emergence action against AMARE in % ([14]; 80 g/ha): 90%; Post-emergence action against VIOTR in % (Viola tricolor (VIOTR) [15]; 320 g/ha): 80%; Post-emergence action against LOLRI in % (Lolium rigidum (LOLRI) [17]): 80%; Pre-emergence action against VIOTR in % (Viola tricolor (VIOTR) [18]; dosage 80 g/ha): 100%; Post-emergence action against AVEFA in % (Avena fatua (AVEFA) [21]; 80 g/ha): 80%; Post-emergence action against AVEFA in % (Avena fatua (AVEFA) [21]; 320 g/ha): 80%; Post-emergence action against VERPE in % ([22]; 320 g/ha, VERPE): 80%; Post-emergence action against VERPE in % ([22]; dosage 80 g/ha): 80%
COC(=O)COc1nn(-c2ncccc2Cl)c(-c2ccc(F)nc2)c1Br [Example I-28]	90	0	10	90	80	90	100	90	–	80	90	90	80	100	100	100	100	100	0	100	Pre-emergence action against POLCO in % ([1]; dosage 80 g/ha): 80%; Pre-emergence action against LOLRI in % (Lolium rigidum (LOLRI) [23]): 100%; Post-emergence action against ALOMY in % ([6]; 80 g/ha): 100%; Post-emergence action against SETVI in % (Setaria viridis (SETVI) [7]; dosage 80 g/ha): 80%; Pre-emergence action against ECHCG in % [24]: 100%; Post-emergence action against PHBPU in % ([25]; dosage 80 g/ha): 80%; Post-emergence action against PHBPU in % ([25]; dosage 320 g/ha): 80%; Post-emergence action against ECHCG in % ([13]; dosage 80 g/ha): 80%; Post-emergence action against ECHCG in % ([13]; dosage 320 g/ha): 90%; Pre-emergence action against AMARE in % ([14]; 80 g/ha): 90%; Post-emergence action against VIOTR in % (Viola tricolor (VIOTR) [15]; 80 g/ha): 80%; Post-emergence action against VIOTR in % (Viola tricolor (VIOTR) [15]; 320 g/ha): 80%; Post-emergence action against LOLRI in % (Lolium rigidum (LOLRI) [17]): 90%; Pre-emergence action against VIOTR in % (Viola tricolor (VIOTR) [18]; dosage 80 g/ha): 100%; Post-emergence action against ZEAMX in % (Zea mays (ZEAMX) [26]; crop plant compatibility, 80 g/ha, effect vs untreated controls): 0%; Post-emergence action against AVEFA in % (Avena fatua (AVEFA) [21]; 80 g/ha): 100%; Post-emergence action against AVEFA in % (Avena fatua (AVEFA) [21]; 320 g/ha): 100%; Post-emergence action against VERPE in % ([22]; 320 g/ha, VERPE): 80%
O=C(O)COc1nn(-c2ccccn2)c(-c2ccc(F)nc2)c1C(F)(F)F [Example I-99]	90	0	0	90	–	–	–	–	90	–	80	–	–	90	90	90	90	90	0	100	Pre-emergence action against LOLRI in % (Lolium rigidum (LOLRI) [23]): 100%; Post-emergence action against ALOMY in % ([6]; 80 g/ha): 90%; Post-emergence action against PHBPU in % ([25]; dosage 80 g/ha): 80%; Post-emergence action against ORYSA in % (Oryza sativa (ORYSA) [19]; 20 g/ha, effect vs untreated controls): 0%; Post-emergence action against ZEAMX in % (crop plant compatibility) (Zea mays (ZEAMX) [26]; 20 g/ha, ZEAMX, effect in comparison to untreated controls): 0%; Post-emergence action against TRZAS in % [27]: 20%; Pre-emergence action against ALOMY ([20]; 80 g/ha): 80%; Post-emergence action against VERPE in % ([22]; dosage 80 g/ha): 80%
